Tested on: 556581-035-R-J1-PDC complex spheroid viability
Assay: Anticancer human tumor 556581-035-R-J1-PDC patient-derived ovarian carcinoma cell line growth inhibition
Conditions: for IC50: curve of first compound; for viability, T/C: stronger effect = lower value
Excerpt: Multicellular complex tumor spheroid response to LSD1 Inhibitor Iadademstat in combination with a variety of drugs and investigational agents in selected tumor cell lines
The current study was undertaken to assess response to LSD1 inhibitors in combination with standard-of-care drugs and investigational agents in solid tumor complex spheroid models as well as in the K-562 leukemia. Complex spheroids include a stromal component modeled by human endothelial cells (HUVEC) and fibroblasts modeled by human mesenchymal stem cells (MSCs). The concentration ranges selected for each drug and investigational agent were based upon clinically achievable concentrations if the clinical Cmax of the agent was known.
Compounds. The drugs and investigational agents used in this study are listed on Table 1. All of the agents used, including staurosporine (NSC755774) and gemcitabine (NSC613327), were obtained from the Developmental Therapeutics Program, NCI. FDA-approved anticancer drugs are available from the NCI at http://dtp.nci.nih.gov/branches/dscb/oncology_drugset_explanation.html. Drugs and investigational agents were >95% pure by proton nuclear magnetic resonance (NMR) and liquid chromatography/mass spectrometry (LC/MS). Stock solutions were prepared at 400x in DMSO, stored at -70 degrees C, and diluted in fresh medium prior to their use. The final concentration of DMSO in cell culture wells never exceeded 0.25% (v/v). The FDA-approved anticancer drug set is available from the Developmental Therapeutics Program at https://dtp.cancer.gov/organization/dscb/obtaining/available_plates.htm. All drugs and investigational agents were tested over a range starting from a high concentration at or near the clinical Cmax and decreasing in half-log increments. If the clinical Cmax for an agent had not been determined, the highest concentration tested was 10 microM.
Cell Lines. The patient-derived cancer cell (PDC) lines: 292921-168-R-J2-PDC, K24384-001-R-PDC, and 521955-158-R2-J5-PDC pancreatic carcinomas, 556581-035-R-J1 ovarian carcinoma, 324938-238-R-J1-PDC, 855422-203-R-J1-PDC and 883617-216-R-J1-PDC urothelial bladder carcinomas, 743489-274-T-PDC renal cell carcinoma, 138582-R-J1 Merkel cell tumor, K60290-347-R-J1 and K57222-313-R-J1-PDC glioblastomas, 653999-131-R-J2-PDC, LG0703-F948-PDC, and 349418-098-R-PDC non-small cell lung carcinomas, 885512-296-R-J2-PDC, 171881-019-R-J1-PDC breast carcinomas and 186277-243-T-J2-PDC and 233499-124-R-J2-PDC colon carcinomas were obtained from the NCI Patient-Derived Models Repository (PDMR, https://pdmr.cancer.gov). The established cell lines NCI/ADR-RES (RRID:CVCL_14520 and OVCAR-5 (RRID:CVCL_1628) ovarian carcinomas, 786-O (RRID:CVCL_1051) and A498 (RRID:CVCL_A498) renal cell carcinoma, NCI-H211 (ATCC, cat. CRL-5824; RRID:CVCL_1529), NCI-H196 (ATCC, cat. CRL-5823, RRID:CVCL_1509), SW 1271 (ATCC, cat. CRL-2177, RRID:CVCL_1716) and NCI-H1876 (ATCC, cat. CRL-5902, RRID:CVCL_1503) small cell lung carcinomas, MDA-MB-231 (RRID:CVCL_0062) and MDA-MB-468 (RRID:CVCL_0419)breast carcinomas (10-12). Pooled donor human umbilical vein endothelial cells (HUVEC, Lonza, cat. CC-2519) and human mesenchymal stem cells (hMSC, Lonza, cat. PT-2501) were purchased from Lonza (Walkersville, MD).
Cell Culture. All cells were maintained in an incubator at 37 degrees C and 5% CO2 with 95% humidity. The PDC lines were cultured according to standard operating procedures established by the NCI PDMR (https://pdmr.cancer.gov). Briefly all PDCs were thawed and cultured in Matrigel-coated flasks prepared with a working solution of 1X Ham's F-12 nutrient mix, without supplementation (Invitrogen, Waltham, MA, cat. 11765054), 100 U/mL penicillin-streptomycin (Invitrogen, cat. 15140122), and 2.5% Matrigel (Corning Inc., Corning, NY, cat. 354248) for the first three passages. […]

[1] = second compound 0.1 µM, first compound 0.00316 µM
[2] = second compound 0.1 µM, first compound 0.01 µM
[3] = second compound 0.1 µM, first compound 0.0316 µM
[4] = second compound 0.1 µM, first compound 0.1 µM
[5] = second compound 0.316 µM, first compound 0.00316 µM
[6] = second compound 0.316 µM, first compound 0.01 µM
[7] = second compound 0.316 µM, first compound 0.0316 µM
[8] = second compound 0.316 µM, first compound 0.1 µM
[9] = second compound 1 µM, first compound 0.00316 µM
[10] = second compound 1 µM, first compound 0.01 µM
[11] = second compound 1 µM, first compound 0.0316 µM
[12] = second compound 1 µM, first compound 0.1 µM
[13] = second compound 3.16 µM, first compound 0.00316 µM
[14] = second compound 3.16 µM, first compound 0.01 µM
[15] = second compound 3.16 µM, first compound 0.0316 µM
[16] = second compound 3.16 µM, first compound 0.1 µM
[17] = second compound 10 µM, first compound 0.00316 µM
[18] = second compound 10 µM, first compound 0.01 µM
[19] = second compound 10 µM, first compound 0.0316 µM
[20] = second compound 10 µM, first compound 0.1 µM
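Note: spheroids exposed to agents for seven days.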
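Throughout, for viability, T/C: 100% = DMSO vehicle control wells.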

Compound `CC[C@@]1(O)C(=O)OCc2c1cc1n(c2=O)Cc2cc3c(CN(C)C)c(O)ccc3nc2-1` + NC1CC1c1ccc(-c2cccc(O)c2)cc1 has an IC50 (second compound 0.1 µM) of 5.86 nM, an IC50 (second compound 0.316 µM) of 5.85 nM and an IC50 (second compound 1 µM) of 5.62 nM. For the same compound, the IC50 (second compound 3.16 µM) was 6.11 nM, the IC50 (second compound 10 µM) was 5.17 nM and the viability, T/C (second compound 0.1 µM, first compound 0.000316 µM) was 97.9%. For the same compound, the viability, T/C (second compound 0.1 µM, first compound 0.001 µM) was 88.2%, the viability, T/C [1] was 67% and the viability, T/C [2] was 34.9%. It also gave a viability, T/C [3] of 16.6%, a viability, T/C [4] of 7.12% and a viability, T/C (second compound 0.316 µM, first compound 0.000316 µM) of 95.5%. The viability, T/C (second compound 0.316 µM, first compound 0.001 µM) was 104%, the viability, T/C [5] was 64.8% and the viability, T/C [6] was 34.5%. It also gave a viability, T/C [7] of 16.6%, a viability, T/C [8] of 6.13% and a viability, T/C (second compound 1 µM, first compound 0.000316 µM) of 91.2%. The viability, T/C (second compound 1 µM, first compound 0.001 µM) was 95.1%, the viability, T/C [9] was 68.4% and the viability, T/C [10] was 30.3%. The viability, T/C [11] was 13.3%, the viability, T/C [12] was 6.38% and the viability, T/C (second compound 3.16 µM, first compound 0.000316 µM) was 103%. For the same compound, the viability, T/C (second compound 3.16 µM, first compound 0.001 µM) was 96.1%, the viability, T/C [13] was 69.9% and the viability, T/C [14] was 34.7%. For the same compound, the viability, T/C [15] was 14.4%, the viability, T/C [16] was 6.43% and the viability, T/C (second compound 10 µM, first compound 0.000316 µM) was 87.9%. It also gave a viability, T/C (second compound 10 µM, first compound 0.001 µM) of 79.8%, a viability, T/C [17] of 59% and a viability, T/C [18] of 35.6%. The viability, T/C [19] was 20.7% and the viability, T/C [20] was 5.8%.
Work on `COc1cc(C2c3cc4c(cc3C(OC3OC5COC(C)OC5C(O)C3O)C3COC(=O)C23)OCO4)cc(OC)c1O` (stereo not given) + NC1CC1c1ccc(-c2cccc(O)c2)cc1 yielded an IC50 (second compound 0.1 µM) of 164 nM, an IC50 (second compound 0.316 µM) of 116 nM and an IC50 (second compound 1 µM) of 185 nM. The IC50 (second compound 3.16 µM) was 316 nM, the IC50 (second compound 10 µM) was 321 nM and the viability, T/C (second compound 0.1 µM, first compound 0.00949 µM) was 92.1%. For the same compound, the viability, T/C (second compound 0.1 µM, first compound 0.03 µM) was 76%, the viability, T/C (second compound 0.1 µM, first compound 0.0949 µM) was 56.4% and the viability, T/C (second compound 0.1 µM, first compound 0.3 µM) was 42.7%. It also gave a viability, T/C (second compound 0.1 µM, first compound 0.949 µM) of 30.3%, a viability, T/C (second compound 0.1 µM, first compound 3 µM) of 23.8% and a viability, T/C (second compound 0.316 µM, first compound 0.00949 µM) of 87.8%. The viability, T/C (second compound 0.316 µM, first compound 0.03 µM) was 75.6%, the viability, T/C (second compound 0.316 µM, first compound 0.0949 µM) was 52.9% and the viability, T/C (second compound 0.316 µM, first compound 0.3 µM) was 33.9%. It also gave a viability, T/C (second compound 0.316 µM, first compound 0.949 µM) of 31%, a viability, T/C (second compound 0.316 µM, first compound 3 µM) of 22.6% and a viability, T/C (second compound 1 µM, first compound 0.00949 µM) of 90.4%. It also gave a viability, T/C (second compound 1 µM, first compound 0.03 µM) of 79.6%, a viability, T/C (second compound 1 µM, first compound 0.0949 µM) of 53.6% and a viability, T/C (second compound 1 µM, first compound 0.3 µM) of 46.3%. The viability, T/C (second compound 1 µM, first compound 0.949 µM) was 29.9%, the viability, T/C (second compound 1 µM, first compound 3 µM) was 18.3% and the viability, T/C (second compound 3.16 µM, first compound 0.00949 µM) was 89.5%. It also gave a viability, T/C (second compound 3.16 µM, first compound 0.03 µM) of 72%, a viability, T/C (second compound 3.16 µM, first compound 0.0949 µM) of 63.6% and a viability, T/C (second compound 3.16 µM, first compound 0.3 µM) of 40.5%. For the same compound, the viability, T/C (second compound 3.16 µM, first compound 0.949 µM) was 54.4%, the viability, T/C (second compound 3.16 µM, first compound 3 µM) was 18.4% and the viability, T/C (second compound 10 µM, first compound 0.00949 µM) was 83.6%. It also gave a viability, T/C (second compound 10 µM, first compound 0.03 µM) of 77.8%, a viability, T/C (second compound 10 µM, first compound 0.0949 µM) of 59.9% and a viability, T/C (second compound 10 µM, first compound 0.3 µM) of 51.6%. For the same compound, the viability, T/C (second compound 10 µM, first compound 0.949 µM) was 39.5% and the viability, T/C (second compound 10 µM, first compound 3 µM) was 27.8%.
With `Nc1ncn(C2CC(O)C(CO)O2)c(=O)n1` (stereo not given) + NC1CC1c1ccc(-c2cccc(O)c2)cc1 the IC50 (second compound 0.1 µM) was over 1000 nM, the IC50 (second compound 0.316 µM) was over 1000 nM and the IC50 (second compound 1 µM) was over 1000 nM. The IC50 (second compound 3.16 µM) was over 1000 nM, the IC50 (second compound 10 µM) was over 1000 nM and the viability, T/C [1] was 78.6%. For the same compound, the viability, T/C [2] was 103%, the viability, T/C [3] was 76.2% and the viability, T/C [4] was 75.2%. It also gave a viability, T/C (second compound 0.1 µM, first compound 0.316 µM) of 72.4%, a viability, T/C (second compound 0.1 µM, first compound 1 µM) of 77.8% and a viability, T/C [5] of 103%. It also gave a viability, T/C [6] of 101%, a viability, T/C [7] of 77.5% and a viability, T/C [8] of 69.5%. For the same compound, the viability, T/C (second compound 0.316 µM, first compound 0.316 µM) was 62.8%, the viability, T/C (second compound 0.316 µM, first compound 1 µM) was 73.5% and the viability, T/C [9] was 94.4%. The viability, T/C [10] was 85.3%, the viability, T/C [11] was 97.4% and the viability, T/C [12] was 75.2%. For the same compound, the viability, T/C (second compound 1 µM, first compound 0.316 µM) was 55.2%, the viability, T/C (second compound 1 µM, first compound 1 µM) was 72.4% and the viability, T/C [13] was 108%. It also gave a viability, T/C [14] of 102%, a viability, T/C [15] of 89.4% and a viability, T/C [16] of 54.9%. The viability, T/C (second compound 3.16 µM, first compound 0.316 µM) was 62.3%, the viability, T/C (second compound 3.16 µM, first compound 1 µM) was 69.1% and the viability, T/C [17] was 98.8%. The viability, T/C [18] was 116%, the viability, T/C [19] was 90.7% and the viability, T/C [20] was 77.4%. It also gave a viability, T/C (second compound 10 µM, first compound 0.316 µM) of 86% and a viability, T/C (second compound 10 µM, first compound 1 µM) of 66.9%.

— PubChem BioAssay AID1918938 (Molecular Pharmacology Branch, DTP, NCI, 2023)
